Source: patent US10953027B2, “Active agents and methods of their use for the treatment of metabolic disorders and nonalcoholic fatty liver disease” (Flagship Pioneering Innovations V, Inc., priority 2018, dated 2021)

Legend:
Assay type in all cases: in vitro ADME
[1] = Assay 3. Fecal Incubation Stability; settings: 1 or 10 μM, human fecal slurry, anaerobic
[2] = Assay 1. Stability in Simulated Gastric Fluid (SGF); settings: 1 μM, 37° C., SGF pH 1.6 with pepsin
Method in brief: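 Simulated gastric fluid, prepared fresh as NaCl buffer at pH 1.6 with 0.1 mg/mL pepsin and FaSSIF powder, received test compound to 1 μM final and was held at 37 °C. LC/MS of acetonitrile-quenched samples, taken immediately and then periodically, gave degradation rates.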

[3] = Assay 2. Stability in Simulated Intestinal Fluid (SIF); settings: 1 μM, 37° C., SIF pH 6.7 with pancreatin
Method in brief: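 Degradation rate measured by LC/MS after acetonitrile quench of timed aliquots, starting at T0. Test compound 1 μM in simulated intestinal fluid (pH 6.7 phosphate buffer, FaSSIF powder, pancreatin), shaken at 37 °C.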

SMILES	Assay 3 (% Remaining at 24 h) [1]	Assay 1 (SGF) (% Remaining @ 1 hours) [2]	Assay 2 (SIF) (% @ Remaining 4 hours) [3]
CCC(=O)O[C@@H]1[C@@H](OC(=O)CC)[C@H](OC(=O)CCc2c[nH]c3ccccc23)OC[C@@H]1OC(=O)CC [Compound 107, (2S,3R,4S,5S)-3,4,5-tris(propanoyloxy)oxan-2-yl 3-(1H-indol-3-yl)propanoate]	A (A: <25% of the tested compound remaining)	C (C: >75% of the tested compound remaining)	A (A: <25% of the tested compound remaining)
CCCC(=O)Oc1ccc(-c2cc(=O)c3c(OC(=O)CCC)cc(OC(=O)CCC)cc3o2)cc1 [Compound 201, 5-(butanoyloxy)-2-[4-(butanoyloxy)phenyl]-4-oxo-4H-chromen-7-yl Butanoate]	A (A: <25% of the tested compound remaining)	B (B: 25-75% of the tested compound remaining)	A (A: <25% of the tested compound remaining)
CO[C@H]1O[C@H](COC(C)=O)[C@@H](OC(C)=O)[C@H](OC(C)=O)[C@@H]1OC(C)=O [Compound 193, (2R,3R,4S,5S,6S)-2-(acetoxymethyl)-6-methoxytetrahydro-2H-pyran-3,4,5-triyl Triacetate]	B (B: 25-75% of the tested compound remaining)	C (C: >75% of the tested compound remaining)	C (C: >75% of the tested compound remaining)
CCC(=O)O[C@@H]1[C@@H](OC(=O)CC)[C@H](OC)OC[C@H]1OC(=O)CC [Compound 106, (2R,3R,4S,5R)-2-methoxy-4,5-bis(propanoyloxyoxan-3-yl Propanoate]	A (A: <25% of the tested compound remaining)	C (C: >75% of the tested compound remaining)	A (A: <25% of the tested compound remaining)
CCC(=O)O[C@@H]1[C@@H](OC(=O)CC)[C@@H](OC)OC[C@H]1OC(=O)CC [Compound 105, (2S,3R,4S,5R)-2-methoxy-4,5-bis(propanoyloxy)oxan-3-yl Propanoate]	A (A: <25% of the tested compound remaining)	C (C: >75% of the tested compound remaining)	B (B: 25-75% of the tested compound remaining)
CCCC(=O)OC[C@H]1O[C@H](OC(=O)CCc2c[nH]c3ccccc23)[C@H](OC(=O)CCC)[C@@H](OC(=O)CCC)[C@@H]1OC(=O)CCC [Compound 122, [(2R,3R,4S,5R,6R)-3,4,5-tris(butanoyloxy)-6-{[3-(1H-indol-3-yl)propanoyl]oxy}oxan-2-yl]methyl Butanoate]	A (A: <25% of the tested compound remaining)	C (C: >75% of the tested compound remaining)	B (B: 25-75% of the tested compound remaining)
CCC(=O)O[C@@H]1[C@@H](OC(=O)CC)[C@H](C)O[C@@H](OC(=O)/C=C/c2c[nH]c3ccccc23)[C@@H]1OC(=O)CC [Compound 134, (2S,3R,4R,5S,6S)-6-methyl-3,4,5-tris(propanoyloxy)oxan-2-yl (2E)-3-(1H-indol-3-yl)prop-2-enoate]	A (A: <25% of the tested compound remaining)	C (C: >75% of the tested compound remaining)	B (B: 25-75% of the tested compound remaining)
CCC(=O)O[C@H]1[C@H](OC(=O)/C=C/c2c[nH]c3ccccc23)OC[C@@H](OC(=O)CC)[C@H]1OC(=O)CC [Compound 124, (2S,3R,4R,5R)-3,4,5-tris(propanoyloxy)oxan-2-yl (2E)-3-(1H-indol-3-yl)prop-2-enoate]	A (A: <25% of the tested compound remaining)	C (C: >75% of the tested compound remaining)	A (A: <25% of the tested compound remaining)
C[C@@H]1OC(O)[C@@H](OC(=O)CCc2c[nH]c3ccccc23)[C@H](OC(=O)CCc2c[nH]c3ccccc23)[C@@H]1OC(=O)CCc1c[nH]c2ccccc12 (stereo partly drawn) [Compound 95, (2S,3R,4R,5S)-6-hydroxy-4,5-bis({[3-(1H-indol-3-yl)propanoyl]oxy})-2-methyloxan-3-yl 3-(1H-indol-3-yl)propanoate]	C (C: >75% of the tested compound remaining)	C (C: >75% of the tested compound remaining)	A (A: <25% of the tested compound remaining)
CCC(=O)Oc1cc(OC(=O)CC)c2c(c1)O[C@H](c1ccc(OC(=O)CC)c(OC(=O)CC)c1)[C@H](OC(=O)CC)C2 [Compound 236, (2R,3R)-2-[3,4-bis(propanoyloxy)phenyl]-5,7-bis(propanoyloxy)-3,4-dihydro-2H-1-benzopyran-3-yl Propanoate]	A (A: <25% of the tested compound remaining)	B (B: 25-75% of the tested compound remaining)	A (A: <25% of the tested compound remaining)
CCC(=O)O[C@@H]1[C@@H](OC(=O)CC)[C@@H](OC)OC[C@@H]1OC(=O)CC [Compound 86, (2S,3R,4S,5S)-2-methoxy-3,5-bis(propanoyloxy)oxan-4-yl Propanoate]	C (C: >75% of the tested compound remaining)	C (C: >75% of the tested compound remaining)	B (B: 25-75% of the tested compound remaining)
CC(=O)OC[C@H]1O[C@@H](OC(C)=O)[C@H](N)[C@@H](OC(C)=O)[C@@H]1OC(C)=O [Compound 194, (2S,3R,4R,5S,6R)-6-(acetoxymethyl)-3-aminotetrahydro-2H-pyran-2,4,5-triyl Triacetate]	C (C: >75% of the tested compound remaining)	C (C: >75% of the tested compound remaining)	A (A: <25% of the tested compound remaining)
CCC(=O)O[C@@H]1[C@@H](OC(=O)CC)[C@@H](OC(=O)/C=C/c2c[nH]c3ccccc23)OC[C@H]1OC(=O)CC [Compound 125, (2R,3R,4S,5R)-3,4,5-tris(propanoyloxy)oxan-2-yl (2E)-3-(1H-indol-3-yl)prop-2-enoate]	A (A: <25% of the tested compound remaining)	C (C: >75% of the tested compound remaining)	A (A: <25% of the tested compound remaining)
CCC(=O)O[C@@H]1[C@H](OC)OC[C@@H](OC(=O)CC)[C@H]1OC(=O)CC [Compound 101, (2R,3S,4R,5R)-2-methoxy-3,5-bis(propanoyloxy)oxan-4-yl Propanoate]	B (B: 25-75% of the tested compound remaining)	C (C: >75% of the tested compound remaining)	A (A: <25% of the tested compound remaining)
O=C(Cc1c[nH]c2ccccc12)Oc1cc(C(=O)O)cc(OC(=O)Cc2c[nH]c3ccccc23)c1OC(=O)Cc1c[nH]c2ccccc12 [Compound 237, 3,4,5-tris({[2-(1H-indol-3-yl)acetyl]oxy})benzoic Acid]	A (A: <25% of the tested compound remaining)	C (C: >75% of the tested compound remaining)	A (A: <25% of the tested compound remaining)
CCC(=O)O[C@H]1OC[C@@H](OC(=O)CC)[C@@H](OC(=O)CC)[C@H]1OC(=O)CC [Compound 133, (2R,3R,4R,5R)-3,4,5-tris(propanoyloxy)oxan-2-yl Propanoate]	A (A: <25% of the tested compound remaining)	C (C: >75% of the tested compound remaining)	A (A: <25% of the tested compound remaining)
CCCC(=O)O[C@@H]1[C@@H](OC(=O)CCC)[C@@H](OC)OC[C@H]1OC(=O)CCC [Compound 104, (2S,3R,4S,5R)-4,5-bis(butanoyloxy)-2-methoxyoxan-3-yl Butanoate]	A (A: <25% of the tested compound remaining)	B (B: 25-75% of the tested compound remaining)	A (A: <25% of the tested compound remaining)
CCC(=O)O[C@H]1[C@H](OC)OC[C@@H](OC(=O)CC)[C@H]1OC(=O)CC [Compound 84, (2R,3R,4R,5R)-2-methoxy-3,5-bis(propanoyloxy)oxan-4-yl Propanoate]	B (B: 25-75% of the tested compound remaining)	C (C: >75% of the tested compound remaining)	C (C: >75% of the tested compound remaining)
